According to US20260317367A1, “SALTS INCLUDING CRYSTALLINE SALTS OF 25-HYDROXY-CHOLEST-5-EN-3-SULFATE AND METHODS FOR PREPARING SAME” (Durect Corporation, priority 2022, published 2026):
Counter-ions that a name gives are not always drawn.

Key:
Assay type in all cases: physicochemical
[1] = Overall rank order of powder flowability (angle of repose and Hausner ratio); details: for Powder flowability, overall (in words): angle of repose and compressibility index/Hausner ratio combined; for Angle of Repose Rank Order / Hausner Ratio Rank Order / Overall Rank Order (Total Score): lower is better flow; for Overall Rank Order (Total Score): sum of both ranks
Excerpt: Table C5 was generated by adding the relative rank order of the 25HC3S salts for angle of repose and Hausner ratio results, and creating an Over All Rank Order of the salts powder flowability. The salts with the lower overall rank order score had better powder flowability.

[2] = Differential scanning calorimetry (DSC), thermal decomposition / endothermic transition; details: for Decomposition temperature (DSC): 10° C./min; for First significant endothermic transition (DSC): indicative of thermal degradation or solid-state transformation
Description: (§1) Differential scanning calorimetry (DSC) is a thermoanalytical technique where the difference in the amount of heat required to increase the temperature of a sample and reference is measured as a function of temperature. Using this technique, phase transitions of a sample can be measured such as melting point. Decomposition can also be observed by DSC as can dehydration events. In the context of DSC measurements, there is also variability and the term “about” means ±1° C., and such variability is to be understood whether a DSC measurement is prefaced by “about” or not unless specified otherwise. Exemplary methods for collecting DSC data are set forth in Example 21. Thermogravimetric analysis, sometimes referred to as, thermal gravimetric analysis (TGA) is a thermal method of thermal analysis where the mass of a sample is measured as a function of time as the sample temperature changes. For example, when samples disclosed herein are heated and a loss in mass is measured prior to decomposition, this is likely indicative of the loss of water from the sample and may indicate that the sample being heated is a hydrate. Exemplary methods for collecting TGA are set forth in Example 23.
DSC was performed using a Mettler-Toledo DSC3+ differential scanning calorimeter. A tau lag adjustment is performed with indium, tin, and zinc. The temperature and enthalpy are adjusted with octane, phenyl salicylate, indium, tin and zinc. The adjustment is then verified with octane, phenyl salicylate, indium, tin, and zinc. The sample was placed into a hermetically sealed aluminum DSC pan, and the weight was accurately recorded. The pan was then inserted into the DSC cell. A weighed aluminum pan configured as the sample pan was placed on the reference side of the cell. The pan lid was pierced prior to sample analysis. Samples were analyzed from 30° C. to 350° C. or 30° C. to 250° C., both at 10° C./min.

[3] = X-ray powder diffraction before and after DVS (form stability); details: 5% to 95% RH
Description: XRPD patterns were collected with a PANalytical X'Pert PRO MPD or a PANalytical Empyrean diffractometer using an incident beam of Cu radiation produced using an Optix long, fine-focus source. An elliptically graded multilayer mirror was used to focus Cu Kα X-rays through the specimen and onto the detector. Prior to the analysis, a silicon specimen (NIST SRM 640f) was analyzed to verify the observed position of the Si 111 peak is consistent with the NIST-certified position. A specimen of the sample was sandwiched between 3-μm-thick films and analyzed in transmission geometry. A beam-stop, short antiscatter extension, and antiscatter knife edge were used to minimize the background generated by air. Soller slits for the incident and diffracted beams were used to minimize broadening and asymmetry from axial divergence. Diffraction patterns were collected using a scanning position-sensitive detector (X'Celerator) located 240 mm from the specimen and Data Collector software v. 5.5. All images have the instrument labeled as X'Pert PRO MPD regardless of the instrument used.
XRPD patterns were collected with a PANalytical X'Pert PRO MPD diffractometer using an incident beam of Cu Kα radiation produced using a long, fine-focus source and a nickel filter. The diffractometer was configured using the symmetric Bragg-Brentano geometry. Prior to the analysis, a silicon specimen (NIST SRM 640f) was analyzed to verify the observed position of the Si 111 peak is consistent with the NIST-certified position. A specimen of the sample was prepared as a thin, circular layer centered on a silicon zero-background substrate. Antiscatter slits (SS) were used to minimize the background generated by air. Soller slits for the incident and diffracted beams were used to minimize broadening from axial divergence. Diffraction patterns were collected using a scanning position-sensitive detector (X'Celerator) located 240 mm from the sample and Data Collector software v. 5.5
(§2) Dynamic vapor sorption data was collected on a Surface Measurement System DVS Intrinsic instrument. The samples were not dried prior to analysis. Sorption and desorption data were collected over a range from 5% to 95% RH in 10% RH increments under a nitrogen purge. The equilibrium criteria used for the analyses were 0.001 dm/dt weight change in 5 minutes with a minimum step time of 30 minutes and maximum equilibration time of 180 minutes with a 3 minute data logging interval. Data were not corrected for the initial moisture content of the sample.

[4] = Final pH of the solubility sample solutions in aqueous media; details: for pH of the solubility sample, 0.9% Sodium Chloride: 0.9% sodium chloride (blank 5.8); for pH of the solubility sample, 5% Dextrose: 5% dextrose (blank 4.7); for pH of the solubility sample, FaSSGF: FaSSGF (blank 1.5, 1.6); for pH of the solubility sample, FaSSIF: FaSSIF (blank 6.5, 6.5); for pH of the solubility sample, FeSSIF: FeSSIF (blank 4.9, 5.0); for pH of the solubility sample, Water: water (blank 6.3)
Description: 25HC3S salts were weighed in 8 mL or 4 mL glass vials with Teflon coated screw caps. Aliquots of each solvent were added to each sample and vortexed for about one minute until excess solid remained. Samples were placed on shaker at room temperature with 210 motion per minute shaking.
After one day, samples were pulled and checked if excess solid was present. About 1.5 mL aliquot of each sample was centrifuged at 12000 rpm for 12 to 15 minutes. […] Aliquots of the top clear solution of each centrifuged sample in MeOH, EtOH, IPA and ACN were diluted with diluent (water:MeOH 95:5) and assayed by HPLC. Samples of the salts in aqueous media were assayed by HPLC without dilution.
5.1 Solubility of 25HC3S Salts in Aqueous Media

[5] = Thermogravimetric analysis (TGA), weight loss
Description: as §1
TG analysis was performed using a Mettler-Toledo TGA/DSC3 analyzer. Temperature and enthalpy adjustments were performed using indium, tin, and zinc, and then verified with indium. The balance was verified with calcium oxalate. The sample was placed in an open aluminum pan. The pan was hermetically sealed, the lid pierced, then inserted into the TG furnace. A weighed aluminum pan configured as the sample pan was placed on the reference platform. The furnace was heated under nitrogen. Each sample was heated from ambient temperature to 350° C. at 10° C./min. Although thermograms are plotted by reference temperature (x-axis), results are reported according to sample temperatures.

[6] = Dynamic vapor sorption (DVS), hygroscopicity; details: DVS
Excerpt: Dynamic vapor sorption (DVS) measures the uptake of a vapor (typically water) by a sample when exposed to a changing relative humidity. The loss of water can also be measured as relative humidity is decreased. Hygroscopic materials tend to absorb water more readily than non-hygroscopic. In some cases, hydrates absorb water to create higher-order hydrates (e.g., a monohydrate converting to a dihydrate when exposed to increasingly humid conditions). In some salts of the disclosure, moisture is retained upon exposure in a DVS experiment and little or no weight loss is observed upon heating from room temperature. In such experiments, the hygroscopic nature of the salt under study may indicate the formation of a hydrate from an anhydrate. […] Exemplary methods for collecting DVS data are set forth in Example 26.
as §2

[7] = listed as crystalline 25HC3S calcium
[8] = listed as crystalline 25HC3S hydroxyethylammonium
[9] = listed as 25HC3S hydroxyethylammonium
[10] = listed as 25HC3S t-butylammonium

For `CC(CCCC(C)(C)O)C1CCC2C3CC=C4CC(OS(=O)(=O)O)CCC4(C)C3CCC12C` (stereo not shown) [Salt #2], the “Powder flowability, overall (in words)” value ([1]; listed as calcium) was “poorer flowability”, the “Angle of Repose Rank Order” value ([1]; listed as 25HC3S calcium) was 11 and the “Hausner Ratio Rank Order” value ([1]; listed as 25HC3S calcium) was 11. For the same compound, the “Overall Rank Order (Total Score)” value ([1]; listed as 25HC3S calcium) was 22, the “Decomposition temperature (DSC)” value [2, 7] was “about 130 °C” and the “Change of x-ray powder diffraction pattern after DVS (in words)” value [3, 7] was “not an appreciable change”. The “pH of the solubility sample, 0.9% Sodium Chloride” value ([4]; listed as 25HC3S calcium) was 8.5, the “pH of solubility sample solution in 0.9% sodium chloride” value ([4]; 0.9% sodium chloride (medium pH 5.8)) was 8.5 and the “pH of the solubility sample, 5% Dextrose” value ([4]; listed as 25HC3S calcium) was 7.2. For the same compound, the “pH of the solubility sample, FaSSGF” value [4] was 1.6, the “pH of the solubility sample, FaSSIF” value ([4]; listed as 25HC3S calcium) was 6.5 and the “pH of the solubility sample, FeSSIF” value [4] was 5.0. For the same compound, the “pH of the solubility sample, Water” value ([4]; listed as 25HC3S calcium) was 8.8, the “Weight loss by TGA, about 112° C. to about 130° C.” value ([5]; about 112° C. to about 130° C.) was 3.1% and the “Weight loss by TGA, room temperature to about 93° C.” value ([5]; room temperature to about 93° C.) was “about 0.9%”.

In the case of `CC(CCCC(C)(C)O)C1CCC2C3CC=C4CC(OS(=O)(=O)O)CCC4(C)C3CCC12C` (stereo not shown) [Salt #5], the “Powder flowability, overall (in words)” value [1, 8] is reported as “relatively good flowability”, the “Powder flowability, overall (in words)” value ([1]; listed as hydroxyethylammonium) is reported as “top three” and the “Angle of Repose Rank Order” value [1, 9] is reported as 1. For the same compound, the “Hausner Ratio Rank Order” value [1, 9] was 1, the “Overall Rank Order (Total Score)” value [1, 9] was 2 and the “Change of x-ray powder diffraction pattern after DVS (in words)” value [3, 8] was “appearance of extra x-ray powder diffraction peaks”. The “pH of the solubility sample, 0.9% Sodium Chloride” value [4, 9] was 8.2, the “pH of the solubility sample, 5% Dextrose” value [4, 9] was 7.0 and the “pH of the solubility sample, FaSSGF” value [4] was 1.6. For the same compound, the “pH of the solubility sample, FaSSIF” value [4] was 6.6, the “pH of the solubility sample, FeSSIF” value [4] was 5.0 and the “pH of the solubility sample, Water” value [4, 9] was 8.6. The “Weight loss by TGA, ambient to 134° C.” value ([5]; ambient to 134° C.) was “about 2.7%” and the “Hygroscopicity (in words)” value [6, 8] was “hygroscopic”.

For `CC(CCCC(C)(C)O)C1CCC2C3CC=C4CC(OS(=O)(=O)O)CCC4(C)C3CCC12C` (stereo not shown) [Salt #12], the “Powder flowability, overall (in words)” value ([1]; listed as t-butylammonium) was “poorer flowability”, the “Angle of Repose Rank Order” value [1, 10] was 13 and the “Hausner Ratio Rank Order” value [1, 10] was 8. The “Overall Rank Order (Total Score)” value [1, 10] was 21, the “First significant endothermic transition (DSC)” value ([2]; listed as t-butylammonium) was about 201 °C and the “pH of the solubility sample, 0.9% Sodium Chloride” value [4, 10] was 8.4. The “pH of the solubility sample, 5% Dextrose” value [4, 10] was 7.2, the “pH of the solubility sample, FaSSGF” value [4] was 1.6 and the “pH of the solubility sample, FaSSIF” value [4, 10] was 6.5. For the same compound, the “pH of the solubility sample, FeSSIF” value [4] was 5.0, the “pH of the solubility sample, Water” value [4, 10] was 8.5 and the “Weight loss by TGA up to 200° C.” value ([5]; up to 200° C., listed as crystalline 25HC3S t-butylammonium) was 0.2%. The “Water uptake (weight gain) up to about 95% relative humidity” value ([6]; 5% to about 95% RH, listed as crystalline 25HC3S t-butylammonium) was “less than 0.5%”, the “Reversibility of water uptake (in words)” value ([6]; RH reduced from 95% to 5%, listed as crystalline 25HC3S t-butylammonium) was “reversibly lose all that water” and the “Hygroscopicity (in words)” value ([6]; listed as crystalline 25HC3S t-butylammonium) was “low hygroscopicity”.

For `C[C@H](CCCC(C)(C)O)[C@H]1CC[C@H]2[C@@H]3CC=C4C[C@@H](OS(=O)(=O)O)CC[C@]4(C)[C@H]3CC[C@]12C` [Salt #14], the “Powder flowability, overall (in words)” value ([1]; listed as crystalline 25HC3S lysine) was “relatively good flowability”, the “Powder flowability, overall (in words)” value ([1]; listed as lysine) was “top three” and the “Angle of Repose Rank Order” value [1] was 2. The “Hausner Ratio Rank Order” value [1] was 2, the “Overall Rank Order (Total Score)” value [1] was 4 and the “Decomposition temperature (DSC)” value [2] was “about 186 °C”. For the same compound, the “First significant endothermic transition (DSC)” value [2] was about 186 °C, the “pH of the solubility sample, 0.9% Sodium Chloride” value [4] was 8.4 and the “pH of the solubility sample, 5% Dextrose” value [4] was 7.5. The “pH of solubility sample solution in 5% dextrose” value ([4]; 5% dextrose (medium pH 4.7)) was 7.5, the “pH of the solubility sample, FaSSGF” value [4] was 1.6 and the “pH of the solubility sample, FaSSIF” value [4] was 6.5. For the same compound, the “pH of the solubility sample, FeSSIF” value [4] was 5.0, the “pH of the solubility sample, Water” value [4] was 8.8 and the “Weight loss by TGA, 100° C. to […] C.” value ([5]; 100° C. to […] C., partly decomposition) was “about 8.8%”. For the same compound, the “Weight loss by TGA to about 100° C.” value ([5]; to about 100° C.) was “about 1.5%” and the “Relative humidity above which the salt is hygroscopic” value [6] was “above 75 % relative humidity”.
